Experimental data: paper PMC6200635 (ACS infectious diseases, 2018)
Like-named read-outs stand apart in the source and are kept apart here.

Legend:
[1] = test system: T. gondii tachyzoites (ME49-FLUC) in HeLa cells; experiment: Luciferase based growth assay, multi-point dose response; assay type: cell-based; details: Toxoplasma gondii, 72 h
[2] = test system: GFP-LC3 recruitment to the T. gondii parasite-containing vacuole in GFP-LC3 HeLa cells; experiment: Image based GFP-LC3 recruitment assay; assay type: cell-based, Toxoplasma gondii; details: IFN-γ 50 U/mL, HeLa cells activated 24 h, 6 h post-infection

| Molecule | EC50 ([1]; read-out: EC50+ IFN-γ) [nM] | EC50 ([1]; read-out: EC50 Naïve) [nM] | GFP-LC3 positive parasite-containing vacuoles [2] [%] |
| --- | --- | --- | --- |
| CCc1nc(N)nc(N)c1-c1ccc(Cl)cc1 [Pyrimethamine] | 200 | 160 |  |
| IFN-γ: recombinant human IFN-γ (R&D Systems, 285-IF-100/CF) (protein, UniProt P01579 24-161, looked up) Interferon gamma: QDPYVKEAENLKKYFNAGHSDVADNGTLFLGILKNWKEESDRKIMQSQIVSFYFKLFKNFKDDQSIQKSVETIKEDMNVKFFNSNKKKRDDFEKLTNYSVTDLNVQRKAIHELIQVMAELSPAAKTGKRKRSQMLFRG |  |  | 12.4 |
